Measurements taken from paper PMC10930102 (Journal of Enzyme Inhibition and Medicinal Chemistry, 2024).
“Also recorded” adds a separate entry of the source.

Columns and labels:
H2228 = experiment: SRB antiproliferation assay; assay type: cell-based; conditions: Homo sapiens, NCI-H2228, 48 h, ALK-addicted cells, read-out: Antiproliferative activity (IC50) H2228
[1] = system: protein expression level of HDAC1, HDAC6, or HDAC8; experiment: Western blot of HDAC protein expression; assay type: cell-based, human; conditions: western blot after treatment (supplemental Figure S3)
Protocol: (§1) Treated cells were washed three times with ice-cold phosphate-buffered saline and lysed in lysis buffer containing 100 mM Tris-HCl, 12 mM sodium deoxycholate, 12 mM sodium lauroylsarcosinate, and protease inhibitor cocktail (BioTools). Cells were heated in lysis buffer at 95 °C for 5 min and then the cell membrane was broken up by sonication (Bioruptor). Cellular debris and unbroken cells were removed by centrifugation (12,500 × g for 30 min, 4 °C). Protein concentration was determined using the bicinchoninic acid assay (Thermo). Cell extracts (20 μg) were resolved by 12% sodium dodecyl sulfate-polyacrylamide gel electrophoresis (SDS-PAGE), transferred to PVDF membranes, and probed separately with antibodies for Ac-histone H3, Ac-α-tubulin, histone H3, α-tubulin, HDAC1, HDAC6, HDAC8 and GAPDH. The antibodies of GAPDH, HDAC1, and HDAC8 were purchased from ABclonal and all other antibodies were from Cell Signalling Technology. Antibody signals were detected using an enhanced chemiluminescence system.
Figure S3. Western blots of HDAC1, HDAC6, and HDAC8 after drug treatment and vehicle control
activity was assessed by MTS assay, and the concentration of inhibitors was determined to be half of their
was tested five times, and the results were normalized to 1. (blank) […]

A549 = experiment: SRB antiproliferation assay; assay type: cell-based; conditions: Homo sapiens, 48 h, read-out: Antiproliferative activity (IC50) A549
HDAC8 = molecular target: T1, HDAC8 (Homo sapiens, UniProt Q9BY41); experiment: HDAC inhibition assay (fluorogenic diacylpeptide, Reaction Biology); assay type: biochemical; conditions: tested once, ten-dose starting at 30 µM
T1 construct: purchased Reaction Biology Corporation; host or cells: baculovirus expression system in SF9 cells
T1 sequence (Q9BY41 1-377): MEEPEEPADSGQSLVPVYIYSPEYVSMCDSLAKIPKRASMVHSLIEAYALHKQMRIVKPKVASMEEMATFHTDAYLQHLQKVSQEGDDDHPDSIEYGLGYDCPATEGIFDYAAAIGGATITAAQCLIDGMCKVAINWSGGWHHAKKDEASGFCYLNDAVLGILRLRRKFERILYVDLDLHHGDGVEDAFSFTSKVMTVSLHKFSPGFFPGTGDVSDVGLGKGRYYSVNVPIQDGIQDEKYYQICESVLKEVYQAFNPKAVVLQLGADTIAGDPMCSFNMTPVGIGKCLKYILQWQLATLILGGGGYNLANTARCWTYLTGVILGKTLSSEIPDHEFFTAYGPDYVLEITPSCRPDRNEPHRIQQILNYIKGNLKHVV

[2] = system: human A549 tumour xenografts; experiment: Human A549 tumour xenograft model; assay type: in vivo
Protocol: […]. Xenografts were implanted by subcutaneous injection of A549 cells and then treatment with various dosages of 3b (0, 5, 10, 20 mg/kg by intraperitoneal injection once daily for 21 days) was initiated when tumour size was 10–20 mm^3. […] Moreover, tumour suppression continued for an additional 10 days after treatment was suspended.
The procedure for establishing tumour xenografts and the dosing of 3b were carried out in accordance with the National Taiwan University College of Medicine Laboratory Animal Centre ([…]) care and use committee. Female nude mice (BALB/cAnN.Cg-Foxn1nu/CrlNarl, 6–8 weeks old) were purchased from the National Laboratory Animal Centre (Taiwan). Mice were implanted subcutaneously in the right flank with 1 × 10^7 A549 cells (human NSCLC, in 1:1 PBS/Geltrex, 200 μL). Treatments were initiated when tumours were 10–20 mm^3 and continued for 21 consecutive days. Mice were randomly assigned to cohorts (n = 5 per group). Compound 3b (10 mg/kg) or vehicle (PBS + 5% DMSO + 10% Pharmasolve) was administered once daily (qd) via intraperitoneal (i.p.) injection. Tumour volume and body weight were assessed daily for 31 days from initiation of treatment. Calliper measurements of tumours were converted to mean tumour volume using the formula: 0.5 × (length × width[2]).

hERG = molecular target: T2, hERG (Homo sapiens, UniProt Q12809); experiment: hERG binding competition assay (Predictor hERG Tracer Red); conditions: binding competition with fluorescent tracer
T2 construct: purchased
T2 sequence (Q12809 whole entry): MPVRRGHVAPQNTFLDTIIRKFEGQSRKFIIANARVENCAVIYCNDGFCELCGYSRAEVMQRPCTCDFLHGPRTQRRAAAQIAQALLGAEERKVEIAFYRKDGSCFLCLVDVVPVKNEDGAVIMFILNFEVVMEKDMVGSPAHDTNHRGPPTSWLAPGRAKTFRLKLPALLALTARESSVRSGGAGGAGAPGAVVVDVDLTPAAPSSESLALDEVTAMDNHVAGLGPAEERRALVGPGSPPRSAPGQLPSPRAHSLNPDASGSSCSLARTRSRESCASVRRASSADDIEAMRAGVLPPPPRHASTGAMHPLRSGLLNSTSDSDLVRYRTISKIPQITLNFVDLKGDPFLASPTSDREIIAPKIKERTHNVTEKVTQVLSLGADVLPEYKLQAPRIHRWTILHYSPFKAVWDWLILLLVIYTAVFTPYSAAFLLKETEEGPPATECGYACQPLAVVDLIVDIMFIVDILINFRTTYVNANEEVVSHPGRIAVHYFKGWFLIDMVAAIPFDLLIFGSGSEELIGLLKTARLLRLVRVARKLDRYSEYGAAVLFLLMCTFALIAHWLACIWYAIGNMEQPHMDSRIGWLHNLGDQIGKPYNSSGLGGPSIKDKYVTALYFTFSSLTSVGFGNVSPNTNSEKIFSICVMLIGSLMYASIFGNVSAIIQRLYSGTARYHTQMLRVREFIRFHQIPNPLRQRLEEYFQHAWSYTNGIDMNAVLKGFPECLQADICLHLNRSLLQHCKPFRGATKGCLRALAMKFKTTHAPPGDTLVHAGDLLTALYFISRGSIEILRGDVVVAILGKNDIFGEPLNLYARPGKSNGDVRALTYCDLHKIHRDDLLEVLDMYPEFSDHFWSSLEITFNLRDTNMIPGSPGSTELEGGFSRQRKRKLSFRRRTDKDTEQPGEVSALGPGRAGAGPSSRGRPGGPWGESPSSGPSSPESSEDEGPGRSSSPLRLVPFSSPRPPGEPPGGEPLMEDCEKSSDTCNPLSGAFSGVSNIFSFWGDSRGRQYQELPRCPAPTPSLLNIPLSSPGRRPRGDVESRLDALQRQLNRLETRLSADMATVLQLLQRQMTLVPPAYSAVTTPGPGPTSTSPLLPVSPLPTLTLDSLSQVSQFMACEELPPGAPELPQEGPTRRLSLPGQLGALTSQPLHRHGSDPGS

JAK2 = molecular target: T3, JAK2 (Homo sapiens, UniProt O60674); experiment: RTK in vitro enzymatic assay; assay type: biochemical; conditions: 20 μM ATP
T3 construct: purchased Reaction Biology Corporation

c-Met = molecular target: T4, c-Met (Homo sapiens, UniProt P08581); experiment: RTK in vitro enzymatic assay; assay type: biochemical; conditions: 20 μM ATP
T4 construct: purchased Reaction Biology Corporation

[3] = system: acetylated histone H3, a substrate of class I HDAC; experiment: Western blot of acetylated histone H3 in H2228 cells; assay type: cell-based, human; conditions: 6 h, 3b 2 µM
Source text: (§2) Figure 4. Effect of test compounds on H2228 cells. […] (A) Western blots of phosphorylated tyrosine residue 1640 on ALK as well as acetylated (Ac) α-tubulin and histone H3 with their corresponding total proteins for normalisation. GAPDH was used as a loading control. (B) Quantification of western blotting results using Image J. Error bars indicate ± S.D.E. *p-Value ≤ 0.05, **p-value ≤ 0.01, ***p-value ≤ 0.001.
as §1, with “The antibodies of GAPDH, HDAC1, and HDAC8 were purchased from ABclonal and all other antibodies were from Cell Signalling Technology.” left out

VEGFR2 = molecular target: T5, VEGFR2 (Homo sapiens, UniProt P35968); experiment: RTK in vitro enzymatic assay; assay type: biochemical; conditions: 20 μM ATP
T5 construct: purchased Reaction Biology Corporation
T5 sequence (P35968 20-1356): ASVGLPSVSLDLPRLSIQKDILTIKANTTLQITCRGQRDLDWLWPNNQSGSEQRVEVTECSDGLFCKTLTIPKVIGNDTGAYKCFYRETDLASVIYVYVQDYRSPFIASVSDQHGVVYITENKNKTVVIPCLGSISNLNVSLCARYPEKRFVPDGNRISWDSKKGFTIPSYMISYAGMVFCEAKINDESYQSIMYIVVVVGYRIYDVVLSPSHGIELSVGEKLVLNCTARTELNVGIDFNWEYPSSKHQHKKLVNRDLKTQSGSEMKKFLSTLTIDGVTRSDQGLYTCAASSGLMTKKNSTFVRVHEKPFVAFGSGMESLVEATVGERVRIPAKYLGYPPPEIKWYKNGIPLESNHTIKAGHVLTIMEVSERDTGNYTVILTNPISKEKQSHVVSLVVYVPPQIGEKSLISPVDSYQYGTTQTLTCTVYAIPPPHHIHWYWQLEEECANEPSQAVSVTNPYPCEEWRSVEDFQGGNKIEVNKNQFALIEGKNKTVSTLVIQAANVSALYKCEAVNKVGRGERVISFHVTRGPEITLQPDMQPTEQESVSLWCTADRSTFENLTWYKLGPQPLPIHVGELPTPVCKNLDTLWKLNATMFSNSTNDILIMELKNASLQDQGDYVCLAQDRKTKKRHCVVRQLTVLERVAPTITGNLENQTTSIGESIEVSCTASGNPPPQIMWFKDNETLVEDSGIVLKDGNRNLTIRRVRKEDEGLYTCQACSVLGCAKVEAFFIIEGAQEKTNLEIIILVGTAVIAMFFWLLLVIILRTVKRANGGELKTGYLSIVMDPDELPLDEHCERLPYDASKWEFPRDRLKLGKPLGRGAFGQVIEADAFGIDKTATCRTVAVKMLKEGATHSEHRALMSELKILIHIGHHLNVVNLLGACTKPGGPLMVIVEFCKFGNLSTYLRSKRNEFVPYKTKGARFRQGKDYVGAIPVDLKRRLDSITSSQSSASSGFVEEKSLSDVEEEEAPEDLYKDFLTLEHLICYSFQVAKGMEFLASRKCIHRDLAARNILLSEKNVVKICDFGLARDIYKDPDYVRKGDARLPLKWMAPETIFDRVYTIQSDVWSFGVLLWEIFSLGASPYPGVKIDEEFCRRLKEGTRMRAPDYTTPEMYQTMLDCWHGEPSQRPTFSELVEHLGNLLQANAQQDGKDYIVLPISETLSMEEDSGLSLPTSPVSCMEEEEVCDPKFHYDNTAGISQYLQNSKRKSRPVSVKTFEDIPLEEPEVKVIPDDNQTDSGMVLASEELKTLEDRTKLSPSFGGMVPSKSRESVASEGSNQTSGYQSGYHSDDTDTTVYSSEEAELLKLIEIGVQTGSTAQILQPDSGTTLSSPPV

EGFR = molecular target: T6, EGFR (Homo sapiens, UniProt P00533); experiment: RTK in vitro enzymatic assay; assay type: biochemical; conditions: 20 μM ATP
T6 construct: purchased Reaction Biology Corporation
T6 sequence (P00533 25-1210): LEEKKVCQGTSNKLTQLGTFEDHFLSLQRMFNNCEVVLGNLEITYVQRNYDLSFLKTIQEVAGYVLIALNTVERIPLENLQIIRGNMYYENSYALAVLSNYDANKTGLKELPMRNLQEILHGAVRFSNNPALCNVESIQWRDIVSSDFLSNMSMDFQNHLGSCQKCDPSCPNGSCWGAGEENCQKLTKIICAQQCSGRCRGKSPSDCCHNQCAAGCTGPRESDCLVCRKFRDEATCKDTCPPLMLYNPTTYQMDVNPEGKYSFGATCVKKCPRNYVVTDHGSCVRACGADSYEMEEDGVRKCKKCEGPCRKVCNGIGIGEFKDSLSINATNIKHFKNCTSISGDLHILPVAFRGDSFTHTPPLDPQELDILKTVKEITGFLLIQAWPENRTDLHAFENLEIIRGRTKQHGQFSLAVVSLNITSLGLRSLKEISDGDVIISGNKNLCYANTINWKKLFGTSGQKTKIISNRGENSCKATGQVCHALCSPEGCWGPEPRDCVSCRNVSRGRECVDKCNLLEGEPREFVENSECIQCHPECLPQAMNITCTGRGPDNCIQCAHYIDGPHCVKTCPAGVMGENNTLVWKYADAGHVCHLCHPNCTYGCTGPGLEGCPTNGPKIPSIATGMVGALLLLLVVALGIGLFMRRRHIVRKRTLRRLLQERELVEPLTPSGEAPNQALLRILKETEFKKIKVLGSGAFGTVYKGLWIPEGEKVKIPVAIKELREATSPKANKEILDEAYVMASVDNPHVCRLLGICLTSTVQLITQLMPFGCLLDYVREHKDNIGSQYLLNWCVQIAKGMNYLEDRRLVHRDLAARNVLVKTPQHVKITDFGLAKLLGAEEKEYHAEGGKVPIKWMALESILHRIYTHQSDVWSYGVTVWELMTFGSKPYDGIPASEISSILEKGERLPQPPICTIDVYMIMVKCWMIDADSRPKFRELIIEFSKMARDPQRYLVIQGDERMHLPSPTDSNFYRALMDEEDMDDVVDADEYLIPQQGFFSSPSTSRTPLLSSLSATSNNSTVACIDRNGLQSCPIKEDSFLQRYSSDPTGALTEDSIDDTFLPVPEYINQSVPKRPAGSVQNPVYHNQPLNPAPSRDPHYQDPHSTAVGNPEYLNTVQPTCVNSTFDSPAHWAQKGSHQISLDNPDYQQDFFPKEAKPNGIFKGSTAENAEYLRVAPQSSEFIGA

HepG2 = experiment: SRB antiproliferation assay; assay type: cell-based; conditions: Homo sapiens, 48 h, read-out: Antiproliferative activity (IC50) HepG2
IGF1R = molecular target: T7, IGF1R (Homo sapiens, UniProt P08069); experiment: RTK in vitro enzymatic assay; assay type: biochemical; conditions: 20 μM ATP
T7 construct: purchased Reaction Biology Corporation
T7 sequence (P08069 31-1367): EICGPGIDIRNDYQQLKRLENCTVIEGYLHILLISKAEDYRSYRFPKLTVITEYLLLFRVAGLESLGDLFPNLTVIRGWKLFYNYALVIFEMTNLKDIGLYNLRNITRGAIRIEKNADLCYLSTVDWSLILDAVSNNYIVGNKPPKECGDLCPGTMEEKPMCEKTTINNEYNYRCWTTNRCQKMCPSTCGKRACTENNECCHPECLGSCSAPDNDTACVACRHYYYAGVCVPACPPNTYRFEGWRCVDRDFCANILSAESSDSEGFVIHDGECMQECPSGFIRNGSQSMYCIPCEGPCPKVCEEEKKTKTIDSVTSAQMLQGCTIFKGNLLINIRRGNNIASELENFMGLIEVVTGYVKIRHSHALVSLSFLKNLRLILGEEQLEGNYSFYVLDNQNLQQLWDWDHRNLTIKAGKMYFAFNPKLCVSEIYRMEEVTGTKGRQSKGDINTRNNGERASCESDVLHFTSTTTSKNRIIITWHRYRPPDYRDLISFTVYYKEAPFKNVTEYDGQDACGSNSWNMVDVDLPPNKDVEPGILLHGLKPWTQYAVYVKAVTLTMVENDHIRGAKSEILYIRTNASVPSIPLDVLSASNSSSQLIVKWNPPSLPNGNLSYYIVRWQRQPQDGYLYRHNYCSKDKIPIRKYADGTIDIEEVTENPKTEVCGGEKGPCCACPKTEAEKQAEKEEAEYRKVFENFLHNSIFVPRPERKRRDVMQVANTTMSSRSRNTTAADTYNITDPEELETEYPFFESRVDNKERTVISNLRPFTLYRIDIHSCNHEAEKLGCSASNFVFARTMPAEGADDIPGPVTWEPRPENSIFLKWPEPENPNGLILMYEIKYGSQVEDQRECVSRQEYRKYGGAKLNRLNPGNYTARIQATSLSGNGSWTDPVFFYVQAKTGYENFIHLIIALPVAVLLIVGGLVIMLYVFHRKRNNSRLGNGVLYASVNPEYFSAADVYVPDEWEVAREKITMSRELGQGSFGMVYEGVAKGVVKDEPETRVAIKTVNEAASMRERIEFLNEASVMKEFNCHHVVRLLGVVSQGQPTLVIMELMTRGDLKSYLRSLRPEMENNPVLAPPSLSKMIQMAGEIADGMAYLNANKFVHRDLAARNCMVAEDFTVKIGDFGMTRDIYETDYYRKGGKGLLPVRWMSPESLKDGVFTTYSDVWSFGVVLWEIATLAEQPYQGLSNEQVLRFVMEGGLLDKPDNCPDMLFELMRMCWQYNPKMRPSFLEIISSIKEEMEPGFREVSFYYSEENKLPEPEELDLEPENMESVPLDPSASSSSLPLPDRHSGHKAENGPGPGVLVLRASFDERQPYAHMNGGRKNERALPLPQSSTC

U87MG = experiment: SRB antiproliferation assay; assay type: cell-based; conditions: Homo sapiens, U-87 MG, 48 h, read-out: Antiproliferative activity (IC50) U87MG
[4] = system: phosphorylation level of Y1604 on ALK; experiment: Western blot of ALK phosphorylation in H2228 cells; assay type: cell-based, human; conditions: 6 h, 3b 2 µM, 3c 4 µM
Source text: as §2, §1

ALK = molecular target: T8, ALK (Homo sapiens, UniProt Q9UM73); experiment: ALK in vitro enzymatic assay (radioisotope P81 filter-binding, Reaction Biology); assay type: biochemical; conditions: 20 μM ATP; ten-dose IC50 mode, duplicate, average
T8 construct: purchased Reaction Biology Corporation

ALK C1156Y = molecular target: T9, ALK C1156Y (Homo sapiens, UniProt Q9UM73, C1156Y); experiment: ALK mutant in vitro enzymatic assay; assay type: biochemical; conditions: 20 μM ATP
T9 construct: purchased Reaction Biology Corporation

CC(C)NC(=O)C1CCC(n2c(=NC(=O)c3ccccc3)[nH]c3cc(C=CC(=O)NO)ccc32)CC1 [Compound 3b, (E)-N-(5-((E)-3-(Hydroxyamino)-3-oxoprop-1-en-1-yl)-1-((1S,4S)-4-(isopropylcarbamoyl)cyclohexyl)-1H-benzo[d]imidazol-2(3H)-ylidene)benzamide] was tested, and the IC50 (H2228) was 440 ± 60 nM, the “protein expression level of HDAC1, HDAC6, or HDAC8” value [1] was “not perturbed” and the IC50 (A549) was 330 ± 30 nM. For the same compound, the IC50 (HDAC8) was 1690 nM, the “effect on tumour volume” value ([2]; 5 mg/kg i.p. once daily for 21 days) was “no significant effect” and the “decrease in mean tumour volume” value ([2]; 10 mg/kg i.p. once daily for 21 days, day 21 of treatment) was 68%. For the same compound, the “decrease in mean tumour volume” value ([2]; 10 mg/kg i.p. once daily for 21 days, day 31 (10 days after treatment suspended)) was 80%, the “decrease in mean tumour volume” value ([2]; 20 mg/kg i.p. once daily for 21 days, day 21 of treatment) was 85% and the “decrease in mean tumour volume” value ([2]; 20 mg/kg i.p. once daily for 21 days, day 31 (10 days after treatment suspended)) was 86%. For the same compound, the mean body weight ([2]; 5, 10, 20 mg/kg i.p. once daily for 21 days, any treatment group) was “negligible effect; also recorded: not significantly affected”, the IC50 (hERG) was greater than 10000 nM and the “IC50 hERG” value (hERG) was “no inhibitory affect”. The IC50 (JAK2) was greater than 10000 nM, the IC50 (c-Met) was greater than 10000 nM and the “acetylated histone H3 level” value [3] was “slightly increased”. The IC50 (VEGFR2) was greater than 10000 nM, the IC50 (EGFR) was greater than 10000 nM and the IC50 (HepG2) was 590 ± 90 nM. The IC50 (IGF1R) was 4840 nM, the IC50 (U87MG) was 620 ± 100 nM and the “phosphorylation level of Y1604 on ALK” value [4] was “significantly decreased”. It also gave an IC50 (ALK) of 16 nM and an IC50 (ALK C1156Y) of 9.7 nM.
